The test has as its target T1, rabbit serum albumin (RSA) (Oryctolagus cuniculus, UniProt P49065).
T1 construct: purchased Sigma (Sigma-Aldrich Chemical Co.)
In words: Fluorescence emission of probes with rabbit serum albumin as binder. Format: binding. As to conditions: pyrene butyric acid excited at 345 nm, FITC at 490 nm; PBS. The protocol: Fluorescence measurements were made on a Hitachi F-2500 fluorescence spectrophotometer with a 1 cm path length cuvette. Spectra were measured at a rate of 1500 nm/min. Excitation wavelength of 345 nm was used for pyrene and 490 nm for FITC.
Lifetimes were measured on modified IBH machine.
Proteins with hydrophobic pockets could be used as binders. […] The binder is not restricted to proteins. […] The excitation wavelength was 345 nm.

Consider two compounds from patent US7838218B2, “Light emitting probes” (priority 2003, dated 2010).

T1 sequence (P49065 25-608): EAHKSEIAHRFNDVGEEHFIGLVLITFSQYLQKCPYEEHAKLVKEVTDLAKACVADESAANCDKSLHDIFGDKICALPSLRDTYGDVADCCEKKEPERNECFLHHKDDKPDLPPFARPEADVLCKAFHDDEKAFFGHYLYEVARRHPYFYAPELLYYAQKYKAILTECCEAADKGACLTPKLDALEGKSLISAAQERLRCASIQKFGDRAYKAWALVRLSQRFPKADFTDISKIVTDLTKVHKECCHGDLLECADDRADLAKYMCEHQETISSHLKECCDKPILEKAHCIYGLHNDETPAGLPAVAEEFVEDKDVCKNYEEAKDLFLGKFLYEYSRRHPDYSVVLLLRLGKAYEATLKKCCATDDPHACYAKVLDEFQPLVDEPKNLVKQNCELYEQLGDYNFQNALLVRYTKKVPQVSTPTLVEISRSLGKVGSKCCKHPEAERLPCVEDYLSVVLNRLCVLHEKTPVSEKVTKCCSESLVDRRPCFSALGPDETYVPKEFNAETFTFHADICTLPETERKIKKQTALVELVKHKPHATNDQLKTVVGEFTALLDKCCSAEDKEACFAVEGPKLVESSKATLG

For the compound `O=C1OC2(c3ccc(O)cc3Oc3cc(O)ccc32)c2ccc(N=C=S)cc21` [FITC, fluorescein isothiocynate], the “effect of RSA on own emission spectrum of the free fluorophore” value is reported as “appears not to change”. As for `c1cc2ccc3cccc4ccc(c1)c2c34` [pyrene butyric acid], the “effect of RSA on own emission spectrum of the free fluorophore” value is on record as “increasing the fluorescence intensity”.
